Test results: patent US12139729B2, “Neurodegenerative disorders” (priority 2013, dated 2024)
Read-outs that look alike come from different tables or passages of the source. Residues, ends and D or L forms follow the SMILES beside them. No end group written: not given here.

Experiments:
[1] = molecular target: T1, α7nAChR (the α7 nicotinic acetylcholine receptor), allosteric site (Rattus norvegicus, UniProt Q05941); assay: [3H] Ivermectin binding assay on PC12 cell membranes
T1 construct: [3H]; host or cells: wild-type PC12 cells
T1 sequence (Q05941 23-502): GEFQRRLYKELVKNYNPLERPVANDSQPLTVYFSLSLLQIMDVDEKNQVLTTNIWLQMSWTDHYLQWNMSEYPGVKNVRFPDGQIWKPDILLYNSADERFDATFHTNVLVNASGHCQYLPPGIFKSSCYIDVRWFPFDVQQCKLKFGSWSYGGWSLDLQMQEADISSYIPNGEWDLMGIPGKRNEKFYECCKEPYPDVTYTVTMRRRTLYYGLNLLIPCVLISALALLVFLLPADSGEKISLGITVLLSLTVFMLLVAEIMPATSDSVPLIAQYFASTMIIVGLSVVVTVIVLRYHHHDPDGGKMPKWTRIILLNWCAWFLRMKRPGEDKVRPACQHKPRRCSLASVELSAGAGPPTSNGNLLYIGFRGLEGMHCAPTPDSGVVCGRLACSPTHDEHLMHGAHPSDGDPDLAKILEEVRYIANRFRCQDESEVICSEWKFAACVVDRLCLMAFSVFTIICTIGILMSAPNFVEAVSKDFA
Method: PC12 membranes where obtained to perform binding assays. PC12 cells were grown until confluence on 100 mm plates. Growth medium was removed and ice-cold 50 mM Tris-HCl buffer (pH 7.4) containing 4.5 μg/μ1 aprotinin and 0.1 mM phenylmethylsulphonylfluoride (PMSF) were added. Cells were mechanically detached and pelleted by centrifugation (1040×g) for 4 minutes at 4° C. Pellets were homogenized with a Polytron and centrifuged (13000×g) for 20 minutes at 4° C. The pellets were resuspended in fresh buffer and incubated at 37° C. for 10 minutes to remove endogenous neurotransmitters. The samples were subsequently re-centrifuged. The final pellet was resuspended in buffer and the protein concentration determined using the Bradford Reagent (Sigma-Aldrich, St. Louis, MO). The cell membrane preparation was stored at −80° C.
For the binding with PC12 membranes, each incubation was performed in polystyrene tube (VWR International Ltd; Leicestershire, UK) containing 0.25 ml of membranes diluted in Tris-HCl 50 mM buffer (containing 50 μg of PC12 membranes) with 5 nM [3H] […] Thereafter, samples were filtered through Brandel GB glass fibre filters (MD, USA); pre-soaked in 0.5% polyethylenemine by a Harvester (Brandel; MD, USA). Tubes were washed 3 times with ice cold 50 mM Tris-HCl buffer. Radioactivity in the tubes was counted by scintillation spectrometry using a 300 SL Liquid scintillation counter (Lablogic Systems Limited, UK). Specific binding was determined by subtracting the non-specific (cells treated with Ivermectin 30 μM) value to all the tubes.

[2] = Sulforhodamine B (SRB) cell viability assay; type: cell-based; details: 1 hour
Method: Wild-type PC12 cell were provided by Sigma-Aldrich (St. Louis, MO). The culture was routinely plated in 100 mm dishes (Corning) coated with collagen (2 μg/cm^2) and maintained in growth medium with Minimum Essential Medium Eagle (MEM) supplemented with heat-inactivated 10% horse serum (HS) and 5% foetal bovine serum (FBS), 10 mM HEPES, 2 mM L-Glutamine and 1:400 Penicillin/streptomycin solution. Cells were maintained at 37° C. in a humidified atmosphere 5% CO2 and the medium was replaced every 2 days. For splitting, cells were dislodged from the dish using a pipette with medium, with a portion of these replated onto new cultured dishes. Cells were used between passages 12 and 25.
The cell viability assay used was the sulforhodamine B (SRB) colorimetric assay for toxicity screening. The day before of the experiment cells were seeded onto collagen-coated 96-well plates in a concentration of 40,000 cells/well. Cell concentration was determined by the Fuchs-Rosenthal chamber. […] After treatment, medium was replaced and cells were fixed by adding 100 μl of 10% Trichloroacetic Acid (TCA) for 1 h at 4° C. Thereafter, cells were washed with H2O and stained with 100 μl of a 0.057% SRB solution in 1% Acetic acid (HAc) for 30 minutes at room temperature. After staining cells were washed with 1% HAc for removing the excess of SRB and then incubated with 200 μl of 10 mM Tris base (pH 10.5) and shake it for 5 minutes to solubilise the protein-bound dye. Measurement of the absorbance took place in a VMax Kinetic Microplate Reader (Molecular Devices) at 490 nm.

[3] = molecular target: allosteric site on the α7 nicotinic-receptor (Rattus norvegicus, UniProt Q05941); assay: Binding affinity for the allosteric site of the α7 nicotinic-receptor, using tests for viability
Sequence of allosteric site on the α7 nicotinic-receptor (Q05941 23-502): as above

[4] = tested on: Amyloid Precursor Protein (APP); assay: Western blot detection of full-length APP in solubilized PC12 cells; type: cell-based; details: 1 hour
Method: PC12 cells are plated with growth medium in Petri Dishes for a week in order to have enough protein to detect APP in PC12 membranes and treated for 1 hour with T30 and NBP-14 before solubilizing the protein. Once the cells have grown until 90% confluence, the growth medium is removed and cells are re-suspended in 2 ml of HBSS. The cells suspension is transferred to a 15 ml tube and centrifuge 5 minutes at 1000 rpm. Then the supernatant is discarded and the pellet is re-suspended in Lysis buffer (20 mM Tris, 137 mM NaCl, 1% Triton X-100, 2 mM EDTA; pH 8) plus protease inhibitors (1 μl:1 ml PMSF and 3 μl:1 ml Aprotinin) and triturated by using a Polytron for 10 seconds. Subsequently, the triturated pellet is distributed in 1.5 ml eppendorfs and rotated or shaken for 2 h at 4° C. […] The Bradford reagent is used to quantify the protein contained in each eppendorf. […]
The steps for electrophoresis are the following: • a) Prepare the lower and the upper acrilamide gels. The % for APP gel is 10% lower gel and 5% stacking gel. • b) Prepare 24 μl of sample at a concentration of 25 μg (determined by the Bradford Assay) (6 μl SB 4× containing β-mercaptoethanol+protein+lisis) and boil them at 100° C. for 5 minutes to denaturalize them. • c) Put the protein marker and the samples in the wells of the gel (20-30 μL). • d) Proceed to Migration: 35 mA (nearly 1 hour). […]

PC12 cells [5] = assay: AChE release / AChE activity in perfusate of treated PC12 cells (Ellman assay); type: cell-based
PC12 cells [6] = assay: Cell Counting Kit-8 (CCK-8) cell viability assay; type: cell-based; details: T30 5 uM, FIG. 15
Source text: A Cell Counting Kit-8 (CCK-8) was used as an improvement of the SRB technique used before. By utilizing the highly water-soluble tetrazolium salt WST-8, CCK-8 produces a water-soluble formazan dye upon reduction in the presence of an electron carrier. WST-8 is reduced by dehydrogenases in cells to give a yellow colored product (formazan), which is soluble in the tissue culture medium. The amount of the formazan dye generated by the activity of dehydrogenases in cells is directly proportional to the number of living cells. PC12 cells are plated in 200 μl of complete growth medium the day before the experiment in 96 well plates. Treatments with T30 and NBP-14 are added and incubated for 1 hour in the incubator.
Subsequently, 100 μl of growth medium is removed and 10 μl of CCK-8 (Cell Counting Kit-8) solution is added. The plate is incubated for 2 hours in the incubator and then placed in the absorbance plate reader. The absorbance must be measured at 450 nm.

Q: Which “% [3H] Ivermectin binding (Mean ± SEM)” value ([1]; 100 nM competitor, Table 2, N = 6) does the source give for `CSCC[C@@H]1NC(=O)[C@H](Cc2ccc(O)cc2)NC(=O)[C@H](CO)NC(=O)[C@H](CO)NC(=O)[C@H](Cc2c[nH]c3ccccc23)NC(=O)[C@H](CCCNC(=N)N)NC(=O)[C@H](Cc2c[nH]cn2)NC(=O)[C@H](Cc2ccccc2)NC(=O)[C@H](CCC(=O)O)NC(=O)[C@H](C)NC(=O)[C@H](CCCCN)NC(=O)[C@H](Cc2c[nH]c3ccccc23)NC(=O)[C@H](Cc2c[nH]cn2)NC(=O)[C@H](C(C)C)NC1=O` [Cyclic T14] (cyclo(AEFHRWSSYMVHWK)) here?
A: 98.10 ± 3.28%

Q: What about the “% [3H] Ivermectin binding (Mean ± SEM)” value ([1]; 200 nM competitor, Table 2) of the same compound?
A: 80.81 ± 4.37%

Q: And the “% [3H] Ivermectin binding (Mean ± SEM)” value ([1]; 500 nM competitor, Table 2)?
A: 79.72 ± 6.76%

Q: What about the “% [3H] Ivermectin binding (Mean ± SEM)” value ([1]; 700 nM competitor, Table 2) of the same compound?
A: 62.26 ± 17.63%

Q: And the “% [3H] Ivermectin binding (Mean ± SEM)” value ([1]; 1 μM competitor, Table 2)?
A: 29.006 ± 8.23%

Q: And the “% [3H] Ivermectin binding (Mean ± SEM)” value ([1]; 2 μM competitor, Table 2)?
A: 13.46 ± 10.40%

Q: And the viability ([2]; T30 10 μM + Cyclic T14 100 nM, read-out: cell viability, T30 combined with Cyclic T14)?
A: 88.6 ± 8.79%

Q: What about the viability ([2]; cell viability, β-amyloid combined with Cyclic T14, β-Amyloid 10 μM + Cyclic T14 100 nM) of the same compound?
A: 94.5 ± 7.4%

Q: And the viability ([2]; cell viability, β-amyloid combined with Cyclic T14, β-Amyloid (10 μM) + Cyclic T14 0.5 nM)?
A: 88.5 ± 10%

Q: What about the viability ([2]; cell viability, β-amyloid combined with Cyclic T14, β-Amyloid (10 μM) + Cyclic T14 1 nM) of the same compound?
A: 97.3 ± 9.57%

Q: What about the viability ([2]; cell viability, β-amyloid combined with Cyclic T14, β-Amyloid (10 μM) + Cyclic T14 10 nM) of the same compound?
A: 102 ± 8.53%

Q: What about the viability ([2]; cell viability, β-amyloid combined with Cyclic T14, β-Amyloid (10 μM) + Cyclic T14 50 nM) of the same compound?
A: 102 ± 14%

Q: And the viability at 10 µM ([2]; cell viability, β-amyloid combined with Cyclic T14, β-Amyloid (10 μM) + Cyclic T14 'moo' (nM))?
A: 104 ± 6.34%

Q: What about the viability at 1 h, 0.1 µM ([2]; rat, PC12 cells (wild-type), Cyclic T14 alone 100 nM, PC12) of the same compound?
A: 98.8 ± 15.2%

Q: And the viability at 1 h, 0.7 µM ([2]; rat, PC12 cells (wild-type), Cyclic T14 alone 700 nM, PC12)?
A: 107 ± 19.9%

Q: What about the viability at 1 h, 1 µM ([2]; rat, PC12 cells (wild-type), Cyclic T14 alone 1 μM, PC12) of the same compound?
A: 105 ± 10.9%

Q: And the viability at 1 h, 100 µM ([2]; rat, PC12 cells (wild-type), Cyclic T14 alone 100 μM, PC12)?
A: 93.6 ± 11.6%

Q: And the “affinity (Table 3 feature)” value ([3]; ✓ = Dream Drug feature 'Nanomolar affinity')?
A: ✓

Q: And the “receptor specificity (Table 3 feature)” value ([3]; ✓ = Dream Drug feature 'Specific action at α7 receptor')?
A: ✓

Q: And the “levels of full length APP (control 100%)” value ([4]; T30 5 μM + NBP-14 0.5 μM)?
A: 126%±1.12

Q: And the “AChE activity, T14 combined with Cyclic T14” value (PC12 cells [5]; T14 10 μM + Cyclic T14 100 nM, 1 hour)?
A: 112.30±1.39

Q: And the “released AChE activity, T30 + NBP-14” value (PC12 cells [5]; T30 5 uM + NBP-14 5 nM (1st of 10 values))?
A: 130.73±1.84%

Q: What about the “released AChE activity, T30 + NBP-14” value (PC12 cells [5]; T30 5 uM + NBP-14 7 nM (2nd of 10 values)) of the same compound?
A: 111.68±2.26%

Q: What about the “released AChE activity, T30 + NBP-14” value (PC12 cells [5]; T30 5 uM + NBP-14 9 nM (3rd of 10 values)) of the same compound?
A: 92.78±0.99%

Q: What about the “released AChE activity, T30 + NBP-14” value (PC12 cells [5]; T30 5 uM + NBP-14 10 nM (4th of 10 values)) of the same compound?
A: 82.56±2.38%

Q: And the “released AChE activity, T30 + NBP-14” value (PC12 cells [5]; T30 5 uM + NBP-14 20 nM (5th of 10 values))?
A: 68.90±0.92%

Q: What about the “released AChE activity, T30 + NBP-14” value (PC12 cells [5]; T30 5 uM + NBP-14 50 nM (6th of 10 values)) of the same compound?
A: 65.12±1.32%

Q: And the “released AChE activity, T30 + NBP-14” value (PC12 cells [5]; T30 5 uM + NBP-14 70 nM (7th of 10 values))?
A: 61.04±0.97%

Q: What about the “released AChE activity, T30 + NBP-14” value (PC12 cells [5]; T30 5 uM + NBP-14, 8th of 10 values, concentration unclear) of the same compound?
A: 79.43±1.69%

Q: What about the “released AChE activity, T30 + NBP-14” value (PC12 cells [5]; T30 5 uM + NBP-14, 9th of 10 values, concentration unclear) of the same compound?
A: 83.91±1.24%

Q: What about the “released AChE activity, T30 + NBP-14” value (PC12 cells [5]; T30 5 uM + NBP-14, 10th of 10 values, concentration unclear) of the same compound?
A: 89.55±1.25%

Q: And the “concentration range protective against AChE compensatory effects” value (PC12 cells [5]; T30 5 uM, FIG. 14)?
A: high nanomolar concentrations

Q: And the “concentration range protective against T30 induced cell death” value (PC12 cells [6])?
A: high nanomolar range

Q: What does the source list for “KAEFHRWSSYMVHWKNQFDHYSKQDRCSDL [T30, reference compound]”?
A: % [3H] Ivermectin binding (Mean ± SEM) ([1]; 1 nM competitor, Table 1): 109.16 ± 11.9%; % [3H] Ivermectin binding (Mean ± SEM) ([1]; 10 nM competitor, Table 1): 116.63 ± 13.25%; % [3H] Ivermectin binding (Mean ± SEM) ([1]; 100 nM competitor, Table 1): 106.15 ± 8.04%; % [3H] Ivermectin binding (Mean ± SEM) ([1]; 1 μM competitor, Table 1): 97.41 ± 7.9%; % [3H] Ivermectin binding (Mean ± SEM) ([1]; 5 μM competitor, Table 1): 80.22 ± 3.81%; viability at 10 µM ([2]; 10 μM, PC12, read-out: cell viability, peptide alone): 68.4 ± 3.1%; binding affinity for the allosteric site on the α7 nicotinic-receptor [3]: 5 nM; levels of full length APP (control 100%) ([4]; T30 5 μM): 67.82%±6.23; AChE activity, peptide alone (PC12 cells [5]; 10 μM, 1 hour, PC12): 129.10±1.18; released AChE activity (PC12 cells [5]; T30 5 uM alone, N=3): 169.45%±2.11
